Test results reported in patent publication US12527849B2, “Apparatus for determining administration form of a composition of an engineered virus-based nanoparticle for a treatment of an autoimmune condition” (Diamante Srl, priority 2021, dated 2026).

How the values were obtained:
Format in all cases: in vivo
IL-17A = experiment: Cytokine ELISA in CIA mice, day 60: IL-17A
Source text: (§1) With continued reference to FIG. 1, in some embodiments, administration 116 may be done to an animal. As a non-limiting example, the animal may include a mouse, a fish, a rabbit, human, and the like. As a non-limiting example, administration 116 of composition of the engineered virus-based nanoparticle for a treatment of an autoimmune condition may be done to dilute, brown, and non-agouti (DBA) mice based on their susceptibility to collagen-induced arthritis (CIA). Female DBA/1 mice 6 to 8 weeks of age may be maintained under specific pathogen-free conditions. CIA may be induced by the intradermal tail base injection of 100 μg of chicken type II collagen (Sigma-Aldrich) as previously described. Five mice per group may be immunized on days 0 and 21 to induce arthritis. The onset of disease may be confirmed on the day that swelling or erythema may be observed in any paw, typically 4 to 10 days after the second immunization. […] CIA may be assessed using a macroscopic score system based on the visual identification of arthritic limbs. The clinical severity of arthritis may be evaluated as follows: Each mouse may be inspected every 2 to 3 days for three different parameters: (i) swelling of the hind ankle and foot, measured with calipers; (ii) erythema of each leg; and (iii) swelling of the fingers. The RA index for each mouse was expressed as the mean of the three scores from the individual parameters. At the end of the experiment (60 days), we determined the proportion of CD25+Foxp3+ cells in the lymph nodes and measured cytokine titers in the lymph nodes, joints, and serum.
(§2) With continued reference to FIG. 1, in some embodiments, processor 104 may determine critical administration 124 as a function of a cytokine profile and a proportion of CD25^+ Foxp3^+ cells. […] In some embodiments, to quantify cytokines in DBA mice, joint tissues may be pulverized and resuspended in 1 ml of lysis medium per 100-mg joint weight for 60 min at 37′C, followed by centrifugation to remove debris. […]

IFN-γ = experiment: Cytokine ELISA in CIA mice, day 60: IFN-γ
Source text: as §1, §2

CD25+ Foxp3+ cells = experiment: Percentage of CD25+ Foxp3+ cells in lymph nodes of CIA mice; conditions: day 60 after immunization, i.p. treatment, mean (SEM), n=3
Source text: as §1, with “described.” for “described. Five mice per group may be immunized on days 0 and 21 to induce arthritis. The onset of disease may be confirmed on the day that swelling or erythema may be observed in any paw, typically 4 to 10 days after the second immunization.”, “serum. […]” for “serum.”

[1] = joint supernatant, CIA mice, day 60, mean n=3
[2] = lymph node supernatant, CIA mice, day 60, mean n=3
[3] = serum pooled from five CIA mice, day 60

SMILES: C[C@@H]1C[C@H]2[C@@H]3CCC4=CC(=O)C=C[C@]4(C)[C@@]3(F)[C@@H](O)C[C@]2(C)[C@@]1(O)C(=O)CO [Dexamethasone, dexamethasone]
- IL-17A J (IL-17A; [1]): 1219.43 pg/mL
- IL-17A LN (IL-17A; [2]): 1540.40 pg/mL
- IL-17A S (IL-17A; [3]): 313.8 pg/mL
- IFN-γ J (IFN-γ; [1]): 187.23 pg/mL
- IFN-γ LN (IFN-γ; [2]): 210.86 pg/mL
- IFN-γ S (IFN-γ; [3]): 75.6 pg/mL
- % CD25^+/Foxp3^+ (CD25+ Foxp3+ cells): 3.26 (0.84) %
